The series deals with CCRIS mutagenicity, Ames/micronucleus/aberration tests. The experiment in a line: CCRIS mutagenicity studies.
[1] abbreviates: Test System: AMES SALMONELLA TYPHIMURIUM, Strain/Indicator: TA98, Metabolic Activation: NONE, Method: STANDARD PLATE.
Setting [2] is: Test System: AMES SALMONELLA TYPHIMURIUM, Strain/Indicator: TA100, Metabolic Activation: NONE, Method: STANDARD PLATE.
Setting [3] is: Test System: AMES SALMONELLA TYPHIMURIUM, Strain/Indicator: TA1535, Metabolic Activation: NONE, Method: STANDARD PLATE.
Setting [4] is: Test System: AMES SALMONELLA TYPHIMURIUM, Strain/Indicator: TA1537, Metabolic Activation: NONE, Method: STANDARD PLATE.
Where [5] appears, read: Test System: AMES SALMONELLA TYPHIMURIUM, Strain/Indicator: TA98, Metabolic Activation: NONE, Method: PREINCUBATION
[6] abbreviates: Test System: AMES SALMONELLA TYPHIMURIUM, Strain/Indicator: TA100, Metabolic Activation: NONE, Method: PREINCUBATION
The mark [7] stands for this setting: Test System: AMES SALMONELLA TYPHIMURIUM, Strain/Indicator: TA1535, Metabolic Activation: NONE, Method: PREINCUBATION
Setting [8] is: Test System: AMES SALMONELLA TYPHIMURIUM, Strain/Indicator: TA1537, Metabolic Activation: NONE, Method: PREINCUBATION

Active and inactive are the calls of the source. The rule behind the calls is not given here.

Turning to `CCN(CCCl)CCCNc1c2ccc(Cl)cc2nc2ccc(OC)cc12`, the mutagenic call under setting [1] is “active; positive”; the mutagenic call under setting [2] is “active; positive”; the mutagenic call under setting [3] is “inactive; negative”; the mutagenic call (Test System: AMES SALMONELLA TYPHIMURIUM, Strain/Indicator: TA1536, Metabolic Activation: NONE, Method: STANDARD PLATE) was “active; positive”; the mutagenic call under setting [4] was “active; positive”; the mutagenic call (Test System: AMES SALMONELLA TYPHIMURIUM, Strain/Indicator: TA1538, Metabolic Activation: NONE, Method: STANDARD PLATE) was “active; positive”. Further, the mutagenic call was “active; positive” (Test System: CHINESE HAMSTER OVARY, Strain/Indicator: CHO-K1-BH4 (HGPRT)/6-THIOGUANINE, Metabolic Activation: NONE, Method: SUSPENSION/PLATE); “active; positive” (Test System: CHINESE HAMSTER OVARY, Strain/Indicator: CHO-K1-BH4 (HGPRT), Metabolic Activation: NONE, Method: MONOLAYER ASSAY); “active; positive” (Test System: CHINESE HAMSTER OVARY, Strain/Indicator: CHO-K1-BH4 (HGPRT), Metabolic Activation: NONE, Method: SUSPENSION/PLATE); “active; positive” (Test System: CHINESE HAMSTER V-79, Strain/Indicator: V-79/6-THIOGUANINE, Metabolic Activation: NONE, Method: FLASK ASSAY); “active; positive” (Test System: CHINESE HAMSTER V-79, Strain/Indicator: V-79/8-AZAGUANINE, Metabolic Activation: NONE, Method: STANDARD PLATE); “active; positive” (Test System: CHO/HGPRT, Strain/Indicator: CHO-K1-BH4, Metabolic Activation: NONE, Method: STANDARD PLATE). Also, the mutagenic call was “active; positive” (Test System: MOUSE LYMPHOMA, Strain/Indicator: L5178Y (TK+/TK-), Metabolic Activation: NONE, Method: SUSPENSION/PLATE); “active; positive” (Test System: Mouse lymphoma, Strain/Indicator: L5178Y (tk+/tk-), Metabolic Activation: None, Method: Suspension/plate); “inconclusive (previous evaluation equivocal)” (Test System: Mouse lymphoma, Strain/Indicator: L5178Y (tk+/tk-), Metabolic Activation: Rat, Liver, S-9, Aroclor 1254, Method: Suspension/plate).
In the case of `CC(C)NC(C)C`, the mutagenic call is “inactive; negative” (Test System: AMES SALMONELLA TYPHIMURIUM, Strain/Indicator: TA98, Metabolic Activation: HAMSTER, LIVER, S-9, AROCLOR 1254 (10%), Method: PREINCUBATION); “inactive; negative” under setting [5]; “inactive; negative” (Test System: AMES SALMONELLA TYPHIMURIUM, Strain/Indicator: TA98, Metabolic Activation: RAT, LIVER, S-9, AROCLOR 1254 (10%), Method: PREINCUBATION); “inactive; negative” (Test System: AMES SALMONELLA TYPHIMURIUM, Strain/Indicator: TA100, Metabolic Activation: HAMSTER, LIVER, S-9, AROCLOR 1254 (10%), Method: PREINCUBATION); “inactive; negative” under setting [6]; “inactive; negative” (Test System: AMES SALMONELLA TYPHIMURIUM, Strain/Indicator: TA100, Metabolic Activation: RAT, LIVER, S-9, AROCLOR 1254 (10%), Method: PREINCUBATION). Besides, the mutagenic call was “inactive; negative” (Test System: AMES SALMONELLA TYPHIMURIUM, Strain/Indicator: TA1535, Metabolic Activation: HAMSTER, LIVER, S-9, AROCLOR 1254 (10%), Method: PREINCUBATION); “inactive; negative” under setting [7]; “inactive; negative” (Test System: AMES SALMONELLA TYPHIMURIUM, Strain/Indicator: TA1535, Metabolic Activation: RAT, LIVER, S-9, AROCLOR 1254 (10%), Method: PREINCUBATION); “inactive; negative” (Test System: AMES SALMONELLA TYPHIMURIUM, Strain/Indicator: TA1537, Metabolic Activation: HAMSTER, LIVER, S-9, AROCLOR 1254 (10%), Method: PREINCUBATION); “inactive; negative” under setting [8]; “inactive; negative” (Test System: AMES SALMONELLA TYPHIMURIUM, Strain/Indicator: TA1537, Metabolic Activation: RAT, LIVER, S-9, AROCLOR 1254 (10%), Method: PREINCUBATION).
`C=CC1=C(C)C(/C=c2/[nH]/c(=C\c3[nH]c(/C=C4\NC(=O)C(C)=C4C=C)c(C)c3CCC(=O)O)c(CCC(=O)O)c2C)=NC1=O`: the mutagenic call was “inactive; negative” (Test System: Ames Salmonella typhimurium, Strain/Indicator: TA98, Metabolic Activation: Liver, S-9, Method: Preincubation); “inactive; negative” (Test System: Ames Salmonella typhimurium, Strain/Indicator: TA100, Metabolic Activation: Liver, S-9, Method: Preincubation); “inactive; negative” (Test System: Ames Salmonella typhimurium, Strain/Indicator: TA100, Metabolic Activation: None, Method: Preincubation); “inactive; negative” (Test System: Ames Salmonella typhimurium, Strain/Indicator: TA102, Metabolic Activation: Liver, S-9, Method: Preincubation); “inactive; negative” (Test System: Ames Salmonella typhimurium, Strain/Indicator: TA102, Metabolic Activation: None, Method: Preincubation).
On to `CCN(C(=O)CCCCl)c1snc2ccccc12`, for which the mutagenic call under setting [1] was “inactive; negative”; the mutagenic call (Test System: AMES SALMONELLA TYPHIMURIUM, Strain/Indicator: TA98, Metabolic Activation: S-9, Method: STANDARD PLATE) was “inactive; negative”; the mutagenic call under setting [2] was “inactive; negative”; the mutagenic call (Test System: AMES SALMONELLA TYPHIMURIUM, Strain/Indicator: TA100, Metabolic Activation: S-9, Method: STANDARD PLATE) is “inactive; negative”; the mutagenic call under setting [3] is “inactive; negative”; the mutagenic call (Test System: AMES SALMONELLA TYPHIMURIUM, Strain/Indicator: TA1535, Metabolic Activation: S-9, Method: STANDARD PLATE) is “inactive; negative”. In addition, the mutagenic call runs as follows: under setting [4], “inactive; negative”; (Test System: AMES SALMONELLA TYPHIMURIUM, Strain/Indicator: TA1537, Metabolic Activation: S-9, Method: STANDARD PLATE) “inactive; negative”.
Regarding `C=C(C)C(=O)O`, the mutagenic call (Test System: AMES SALMONELLA TYPHIMURIUM, Strain/Indicator: TA98, Metabolic Activation: HAMSTER, LIVER, S-9, AROCLOR 1254, Method: PREINCUBATION) was “inactive; negative”; the mutagenic call under setting [5] was “inactive; negative”; the mutagenic call (Test System: AMES SALMONELLA TYPHIMURIUM, Strain/Indicator: TA98, Metabolic Activation: RAT, LIVER, S-9, AROCLOR 1254, Method: PREINCUBATION) is “inactive; negative”; the mutagenic call (Test System: AMES SALMONELLA TYPHIMURIUM, Strain/Indicator: TA100, Metabolic Activation: HAMSTER, LIVER, S-9, AROCLOR 1254, Method: PREINCUBATION) was “inactive; negative”; the mutagenic call under setting [6] was “inactive; negative”; the mutagenic call (Test System: AMES SALMONELLA TYPHIMURIUM, Strain/Indicator: TA100, Metabolic Activation: RAT, LIVER, S-9, AROCLOR 1254, Method: PREINCUBATION) is “inactive; negative”. The mutagenic call runs as follows: (Test System: AMES SALMONELLA TYPHIMURIUM, Strain/Indicator: TA1535, Metabolic Activation: HAMSTER, LIVER, S-9, AROCLOR 1254, Method: PREINCUBATION) “inactive; negative”; under setting [7], “inactive; negative”; (Test System: AMES SALMONELLA TYPHIMURIUM, Strain/Indicator: TA1535, Metabolic Activation: RAT, LIVER, S-9, AROCLOR 1254, Method: PREINCUBATION) “inactive; negative”; (Test System: AMES SALMONELLA TYPHIMURIUM, Strain/Indicator: TA1537, Metabolic Activation: HAMSTER, LIVER, S-9, AROCLOR 1254, Method: PREINCUBATION) “inactive; negative”; under setting [8], “inactive; negative”; (Test System: AMES SALMONELLA TYPHIMURIUM, Strain/Indicator: TA1537, Metabolic Activation: RAT, LIVER, S-9, AROCLOR 1254, Method: PREINCUBATION) “inactive; negative”.
